{
  "source": "patent US20230035127A1",
  "about": "“CULTURE AND DIFFERENTIATION OF PLURIPOTENT STEM CELLS” (University of Maryland, College Park, priority 2021, published 2023)",
  "key": {"human eiPSCs": {"tested_on": "human eiPSCs", "assay": "3D cardiac differentiation of eiPSC spheroids: percentage of beating cardiac spheroids and outset beating time", "format": "cell-based", "details": "for beating efficiency of 3D cardiac differentiation: PSCs", "description": "Cardiac differentiation of the 3D eiPSC spheroids was conducted by modulating the canonical Wnt signaling pathway with agonists and antagonists sequentially, which has also been used for differentiation of human PSCs into cardiomyocytes under 2D culture. Two Wnt agonists, CHIR99021 (8 μM) and 6-bromoindirubin-3′-oxime (BIO, 2 μM), were supplemented into the culture medium on day 0, to up-regulate the Wnt signaling and induce iPSC differentiation into mesoderm for 1 day. On day 1, two Wnt antagonists, XAV939 (10 μM) and KY02111 (10 μM), were used to suppress the Wnt signaling for inducing cardiac commitment of the mesoderm cells in the following 6 days to obtain cardiac spheroids. Afterward, the cardiac spheroids were cultured in pure cardiac maintenance medium for maturation until day 13.5. […] In other words, the outset beating time (OBT) of the cardiac spheroids was synchronized to be within ˜24 h for the 1 μM RI group. No significant change in the beating percentage from day 7.5 to day 13.5 was observed. In contrast, in the 10 μM RI group, only ˜8% and ˜44% of cardiac spheroids beat on days 6.5 and 13.5, respectively (FIG. 4A, on day 13.5). […] Therefore, the OBT ranges over at least a week, indicating high heterogeneity of the cardiac spheroids in the 10 μM RI group as the beating is a direct and visible indicator of functional maturity of the cardiac spheroids.\nTo obtain 3D iPSC spheroids, the iPSC colonies under 2D culture at ˜80% confluence were treated with Versene for 2 min, rinsed with PBS, and further detached from the substrate by gentle pipetting. The detached iPSCs were re-suspended in mTeSR1 with Rock inhibitor (Y27632) at 0, 1, 5, or 10 μM. Afterward, the medium was supplemented with 0.35% (v/v) methylcellulose. The cell suspension (12 ml) containing ˜4×10^6 cells was pushed through a cell strainer with 100 μm mesh size. Later, the suspension of iPSC clumps was transferred into a petri dish (diameter: 10 cm) for culture in a humidified incubator at 37° C. and 5% CO2 for 2 days, during which the 2D iPSC clumps grew into 3D iPSC spheroids. Then, the medium was changed to mTeSR1 (supplemented with 0.35% methylcellulose) with no rock inhibitor, to further culture for 2 days before cardiac differentiation. To determine the number of cells per eiPSC spheroid, roughly equal numbers of the spheroids from either the 1 or 10 μM RI group were pooled together and trypsinized to dissociate the cells. The dissociated cells were then resuspended in 1.4 ml of the aforementioned iPSC maintenance medium and the cell number was counted using a hemocytometer. Three independent runs with 282, 260, and 256 spheroids for the 1 μM RI group and 273, 298, and 286 spheroids for the 10 μM RI group were conducted.\nThe eiPSC spheroids obtained after 4 days of culture on day 0 were induced into mesoderm by up-regulation of the Wnt signaling pathway using 8 μM CHIR99021 and 2 μM GSK inhibitor 6-bromoindirubin-3′-oxime (BIO) in the mesoderm induction medium for 1 day. The mesoderm induction medium was a mixture of DMEM/F12 and α-MEM (v/v, 1:1), containing 2% Knockout Serum Replacement (KOSR), 1 mM L-glutamine, 1% MEM non-essential amino acids (NEAA), and 0.1 mM β-mercaptoethanol. After 1 day, the spheroids were induced for cardiac commitment by down-regulating the Wnt signaling pathway using 10 μM KY02111 and 10 μM XAV939 in the cardiac maintenance medium for 6 days with the medium being changed every other day. The cardiac maintenance medium was a mixture of RPMI1640 and α-MEM (v/v, 1:1) containing 5% fetal bovine serum (FBS). Starting from day 8, the cardiac maintenance medium without KY02111 and XAV939 was used, and it was changed every other day for cardiac maturation. Images and videos of the resultant cardiac spheroids were taken using the Zeiss LSM 710 microscope before medium change."}, "eiPSC spheroids": {"tested_on": "eiPSC spheroids", "assay": "Teratoma assay of eiPSC spheroids injected subcutaneously into NOD/SCID mice", "format": "in vivo", "details": "eiPSC spheroids from 1 and 10 μM RI groups, day 0, s.c. in NOD/SCID mice", "description": "To test the pluripotency of the cells in the 3D iPSC spheroids in vivo with the teratoma assay, the eiPSC spheroids were directly injected subcutaneously (s.c.) into the dorsal rear flank of severe combined immunodeficient mice (NOD.CB17-scid). A total of 2×10^6 cells in 300 μL of PBS was injected into each mouse (age: 5 weeks, and 5 mice per group). After 5 weeks, the mice were sacrificed, and the resulting teratoma were collected and fixed in 4% paraformaldehyde (PFA) for 3 days. Afterward, the samples were cut into small pieces of ˜0.5 cm^3, embedded in paraffin, and sectioned into slices of 5 μm thick. The slices were stained with hematoxylin and eosin (H&E) and imaged with a Zeiss LSM 710 microscope. All animal studies were approved by the Institutional Animal Care and Use Committee (IACUC, #R-MAY-18-24) at the University of Maryland, College Park."}, "[1]": {"tested_on": "human eiPSCs (DF19-9-11T.H)", "assay": "3D suspension culture of eiPSC spheroids with Rock inhibitor (morphology, size, cells per spheroid)", "format": "cell-based", "details": "day −3", "description": "The timeline for the 4-day (from day −4 to 0) 3D culture and the subsequent 3D cardiac differentiation of iPSCs is illustrated in FIG. 1B. First, 3D eiPSC spheroids were obtained for 3D cardiac differentiation, for which the eiPSC colonies from 2D culture were detached and mechanically cut with a cell strainer (100 μm mesh size) into small iPSC clumps for suspension culture in the mTeSR medium for 4 days. Methylcellulose was added into the medium to enhance the medium viscosity and reduce fusion of the eiPSC clumps/spheroids during the suspension culture. During the first two days of 3D culture, the medium was supplemented with 1 μM RI (low RI) or 10 μM RI (high RI that has been commonly used for improving the survival/yield of human PSCs including iPSCs during culture), and no RI was used during the last two days of culture. […]\nTo obtain 3D iPSC spheroids, the iPSC colonies under 2D culture at ˜80% confluence were treated with Versene for 2 min, rinsed with PBS, and further detached from the substrate by gentle pipetting. […] The dissociated cells were then resuspended in 1.4 ml of the aforementioned iPSC maintenance medium and the cell number was counted using a hemocytometer. […]"}},
  "note": "Values joined by “and” are separate entries in the source; they are usually repeats but may differ in a detail not shown here. Identical values can stand only once.",
  "data": [
    {"smiles": "C[C@@H](N)[C@H]1CC[C@H](C(=O)Nc2ccncc2)CC1.Cl.Cl", "note": "(relative stereo) [RI, (+)-(R)-trans-4-(1-aminoethyl)-N-(4-pyridyl) cyclo-hexanecarboxamide dihydrochloride]", "values": [
      {"measurement": "beating efficiency of 3D cardiac differentiation", "setting": "human eiPSCs; 1 μM RI, in about 7 days", "result": "more than 95%"},
      {"measurement": "percentage of beating cardiac spheroids", "setting": "human eiPSCs; 1 μM RI, day 6.5", "result": "~48", "unit": "%"},
      {"measurement": "percentage of beating cardiac spheroids", "setting": "human eiPSCs; 5 μM RI, day 9.5", "result": "~61", "unit": "%"},
      {"measurement": "beating efficiency of 3D cardiac differentiation", "setting": "human eiPSCs; 10 μM RI, in 14 days", "result": "less than 50%"},
      {"measurement": "outset beating time (OBT)", "setting": "human eiPSCs; 10 μM RI, day 6-6.5 to day 13.5", "result": "more than 7 days"},
      {"measurement": "percentage of beating cardiac spheroids", "setting": "human eiPSCs; 10 μM RI, day 6.5", "result": "~8", "unit": "%"},
      {"measurement": "percentage of beating cardiac spheroids", "setting": "human eiPSCs; 10 μM RI, day 13.5, dihydrochloride", "result": "~44% and 44.3%"},
      {"measurement": "teratoma formation (pluripotency in vivo)", "setting": "eiPSC spheroids", "result": "forming teratomas consisting of tissues from all the three germ layers"},
      {"measurement": "morphology of eiPSC spheroids", "setting": "[1]; 1 μM RI", "result": "remain solid-like"},
      {"measurement": "morphology of eiPSC spheroids", "setting": "[1]; 10 μM RI", "result": "evident core-shell morphology with a cavity-like core"}
    ]}
  ]
}
